{"source": "ChEMBL document CHEMBL4130493", "about": "“An insight into the biological activities of heterocyclic-fatty acid hybrid molecules” (Eur J Med Chem, 2017)", "key": {"[1]": {"system": "Bacillus subtilis", "assay": "Antibacterial activity against Bacillus subtilis MTCC 121 incubated for 24 hrs by filter paper disc method", "format": "functional"}, "[2]": {"system": "Klebsiella pneumoniae", "assay": "Antibacterial activity against Klebsiella pneumoniae incubated for 24 hrs by filter paper disc method", "format": "functional"}, "[3]": {"system": "Staphylococcus aureus", "assay": "Antibacterial activity against Staphylococcus aureus MSSA 22 incubated for 24 hrs by filter paper disc method", "format": "functional"}, "[4]": {"system": "Escherichia coli", "assay": "Antibacterial activity against Escherichia coli K-12 incubated for 24 hrs by filter paper disc method", "format": "functional"}, "[5]": {"system": "Candida albicans", "assay": "Antifungal activity against Candida albicans IOA-109 incubated for 18 to 48 hrs", "format": "functional"}, "[6]": {"system": "Candida albicans", "assay": "Antifungal activity against Candida albicans IOA-109 at 50 ug/disc incubated for 5 to 6 days by disc diffusion method", "format": "functional", "settings": "read-out: DIZ"}, "[7]": {"system": "Staphylococcus aureus", "assay": "Antibacterial activity against Staphylococcus aureus at 50 ug/disc incubated for 18 hrs by disc diffusion method", "format": "functional", "settings": "read-out: DIZ"}, "[8]": {"system": "Mycobacterium avium", "assay": "Antimycobacterial activity against Mycobacterium avium", "format": "functional"}, "[9]": {"system": "Mycobacterium tuberculosis", "assay": "Antimycobacterial activity against Mycobacterium tuberculosis H37Rv assessed as reduction in mycobacterial growth incubated for 5 days by MTT assay", "format": "functional", "settings": "120 h"}, "[10]": {"system": "Staphylococcus aureus", "assay": "Antibacterial activity against Staphylococcus aureus MSSA 22 by disc diffusion method", "format": "functional"}, "[11]": {"system": "Escherichia coli", "assay": "Antibacterial activity against Escherichia coli K-12 by disc diffusion method", "format": "functional"}, "[12]": {"system": "Salmonella typhimurium", "assay": "Antibacterial activity against Salmonella typhimurium MTCC98 by disc diffusion method", "format": "functional, Salmonella enterica subsp. enterica serovar Typhimurium"}, "[13]": {"system": "Bacillus subtilis", "assay": "Antibacterial activity against Bacillus subtilis ATCC 6051 by disc diffusion method", "format": "functional"}, "[14]": {"system": "Candida albicans", "assay": "Antifungal activity against Candida albicans IOA-109", "format": "functional"}, "[15]": {"system": "Hep 3B2", "assay": "Cytotoxicity in human Hep3B cells incubated for 48 hrs by MTT assay", "format": "functional, cell-based"}, "[16]": {"system": "MCF7", "assay": "Cytotoxicity in human MCF7 cells incubated for 48 hrs by MTT assay", "format": "functional, cell-based", "settings": "MCF7, 48 h"}, "[17]": {"system": "HeLa", "assay": "Cytotoxicity in human HeLa cells incubated for 48 hrs by MTT assay", "format": "functional, cell-based"}, "[18]": {"system": "Candida albicans", "assay": "Antifungal activity against Candida albicans by disc diffusion method", "format": "functional"}, "[19]": {"system": "Pseudomonas aeruginosa", "assay": "Antibacterial activity against Pseudomonas aeruginosa incubated for 24 hrs by filter paper disc method", "format": "functional"}, "[20]": {"system": "Mycobacterium tuberculosis", "assay": "Antimycobacterial activity against Mycobacterium tuberculosis MDR-TB", "format": "functional"}, "[21]": {"system": "Mycobacterium tuberculosis", "assay": "Antimycobacterial activity against Mycobacterium tuberculosis XDR-TB", "format": "functional"}}}
{"smiles": "CCCCC/C=C\\CCC(O)CCCCCCCC(=O)Nn1c(C)ccc1C", "note": "(configuration not stated)", "values": [{"measurement": "diameter of the inhibition zone (DIZ)", "setting": "[1]", "result": "15 - 19 mm"}, {"measurement": "diameter of the inhibition zone (DIZ)", "setting": "[2]", "result": "15 - 19 mm"}, {"measurement": "diameter of the inhibition zone (DIZ)", "setting": "[3]", "result": "15 - 19 mm"}, {"measurement": "diameter of the inhibition zone (DIZ)", "setting": "[4]", "result": "15 - 19 mm"}, {"measurement": "diameter of the inhibition zone (DIZ)", "setting": "[5]", "result": "17 - 20 mm"}]}
{"smiles": "CCCCCCCC/C=C\\CCCCCCCC(=O)n1nnc2ccccc21", "values": [{"measurement": "zone of inhibition at 50 µg/disc", "setting": "[6]", "result": "13 to 15", "unit": "mm"}, {"measurement": "zone of inhibition at 50 µg/disc", "setting": "[7]", "result": "13 to 15", "unit": "mm"}]}
{"smiles": "CCCCCCCCc1cn(CC(=O)OCC)nn1", "values": [{"measurement": "MIC", "setting": "[8]", "result": 0.5, "unit": "µg/mL"}, {"measurement": "MIC", "setting": "[9]", "result": 0.5, "unit": "µg/mL"}]}
{"smiles": "C=CCCCCCCCCc1nnc(N)o1", "values": [{"measurement": "diameter of the inhibition zone (DIZ)", "setting": "[10]", "result": "7 - 13 mm"}, {"measurement": "diameter of the inhibition zone (DIZ)", "setting": "[11]", "result": "7 - 13 mm"}, {"measurement": "diameter of the inhibition zone (DIZ)", "setting": "[12]", "result": "7 - 13 mm"}, {"measurement": "diameter of the inhibition zone (DIZ)", "setting": "[13]", "result": "7 - 13 mm"}]}
{"smiles": "CCCCCCCCCCCCCCCc1nc2ccccc2s1", "values": [{"measurement": "diameter of the inhibition zone (DIZ)", "setting": "[14]", "result": "16 - 20 mm"}]}
{"smiles": "C=CCCCCCCCCc1nc2ccccc2s1", "values": [{"measurement": "diameter of the inhibition zone (DIZ)", "setting": "[14]", "result": "16 - 20 mm"}]}
{"smiles": "CCCCCCCC/C=C\\CCCCCCCc1nc2ccccc2s1", "values": [{"measurement": "diameter of the inhibition zone (DIZ)", "setting": "[14]", "result": "16 - 20 mm"}]}
{"smiles": "CCCC/C=C\\CCC(O)CCCCCCC1=NNC2SCC(c3ccccc3)=NN12", "note": "(configuration not stated)", "values": [{"measurement": "IC50", "setting": "[15]", "result": 7.36, "unit": "µM"}, {"measurement": "IC50", "setting": "[16]", "result": 8.8, "unit": "µM"}, {"measurement": "IC50", "setting": "[17]", "result": 6, "unit": "µM"}]}
{"smiles": "CCCCCCC(O)C/C=C\\CCCCCCc1nc2ccccc2c(=O)o1", "note": "(configuration not stated)", "values": [{"measurement": "diameter of the inhibition zone (DIZ)", "setting": "[1]", "result": "15 - 19 mm"}, {"measurement": "diameter of the inhibition zone (DIZ)", "setting": "[2]", "result": "15 - 19 mm"}, {"measurement": "diameter of the inhibition zone (DIZ)", "setting": "[3]", "result": "15 - 19 mm"}, {"measurement": "diameter of the inhibition zone (DIZ)", "setting": "[4]", "result": "15 - 19 mm"}, {"measurement": "diameter of the inhibition zone (DIZ)", "setting": "[5]", "result": "17 - 20 mm"}]}
{"smiles": "CCCCCCCCCCCCCCCc1ccc(CCCCCCCCCCCCCCC)o1", "values": [{"measurement": "diameter of the inhibition zone (DIZ)", "setting": "[18]", "result": 27, "unit": "mm"}]}
{"smiles": "C=CCCCCCCCCC(=O)n1nnc2ccccc21", "values": [{"measurement": "zone of inhibition at 50 µg/disc", "setting": "[6]", "result": "13 to 15", "unit": "mm"}, {"measurement": "zone of inhibition at 50 µg/disc", "setting": "[7]", "result": "13 to 15", "unit": "mm"}]}
{"smiles": "CCCCCCC(O)C/C=C\\CCCCCCC(=O)N1N=C(C)CC1=O", "note": "(configuration not stated)", "values": [{"measurement": "diameter of the inhibition zone (DIZ)", "setting": "[1]", "result": "10 - 18 mm"}, {"measurement": "diameter of the inhibition zone (DIZ)", "setting": "[19]", "result": "10 - 18 mm"}, {"measurement": "diameter of the inhibition zone (DIZ)", "setting": "[3]", "result": "10 - 18 mm"}, {"measurement": "diameter of the inhibition zone (DIZ)", "setting": "[4]", "result": "10 - 18 mm"}]}
{"smiles": "CCCCCCC(O)C/C=C\\CCCCCCC(=O)Nn1c(C)ccc1C", "note": "(configuration not stated)", "values": [{"measurement": "diameter of the inhibition zone (DIZ)", "setting": "[1]", "result": "15 - 19 mm"}, {"measurement": "diameter of the inhibition zone (DIZ)", "setting": "[2]", "result": "15 - 19 mm"}, {"measurement": "diameter of the inhibition zone (DIZ)", "setting": "[3]", "result": "15 - 19 mm"}, {"measurement": "diameter of the inhibition zone (DIZ)", "setting": "[4]", "result": "15 - 19 mm"}, {"measurement": "diameter of the inhibition zone (DIZ)", "setting": "[5]", "result": "17 - 20 mm"}]}
{"smiles": "CCCCCCC(O)C/C=C\\CCCCCCCC1=NNC2SCC(c3ccccc3)=NN12", "note": "(configuration not stated)", "values": [{"measurement": "IC50", "setting": "[15]", "result": 6.5, "unit": "µM"}, {"measurement": "IC50", "setting": "[16]", "result": 8.59, "unit": "µM"}, {"measurement": "IC50", "setting": "[17]", "result": 8.83, "unit": "µM"}]}
{"smiles": "CCCCCCCCNc1cncc(C(=O)Nc2ccccc2)n1", "values": [{"measurement": "MIC", "setting": "[20]", "result": "16 to 32", "unit": "µM"}, {"measurement": "MIC", "setting": "[21]", "result": "16 to 32", "unit": "µM"}]}
{"smiles": "CCCCCCC(O)C/C=C\\CCCCCCCc1nnc(N)o1", "note": "(configuration not stated)", "values": [{"measurement": "diameter of the inhibition zone (DIZ)", "setting": "[10]", "result": "13 - 18 mm"}, {"measurement": "diameter of the inhibition zone (DIZ)", "setting": "[11]", "result": "13 - 18 mm"}, {"measurement": "diameter of the inhibition zone (DIZ)", "setting": "[12]", "result": "13 - 18 mm"}, {"measurement": "diameter of the inhibition zone (DIZ)", "setting": "[13]", "result": "13 - 18 mm"}]}
{"smiles": "CCCCC/C=C\\CCC(O)CCCCCCCC(=O)N1N=C(C)CC1=O", "note": "(configuration not stated)", "values": [{"measurement": "diameter of the inhibition zone (DIZ)", "setting": "[1]", "result": "10 - 18 mm"}, {"measurement": "diameter of the inhibition zone (DIZ)", "setting": "[19]", "result": "10 - 18 mm"}, {"measurement": "diameter of the inhibition zone (DIZ)", "setting": "[3]", "result": "10 - 18 mm"}, {"measurement": "diameter of the inhibition zone (DIZ)", "setting": "[4]", "result": "10 - 18 mm"}]}
{"smiles": "CCCCCC(O)/C=C\\CCCCCCCc1ccc(CCCCCCC/C=C\\C(O)CCCCC)o1", "note": "(configuration not stated)", "values": [{"measurement": "diameter of the inhibition zone (DIZ)", "setting": "[18]", "result": 27, "unit": "mm"}]}
{"smiles": "CCCCCCC/C=C\\CC(O)CCCCCCC(=O)n1[nH]c(=O)c2ccccc2c1=O", "note": "(configuration not stated)", "values": [{"measurement": "diameter of the inhibition zone (DIZ)", "setting": "[1]", "result": "10 - 18 mm"}, {"measurement": "diameter of the inhibition zone (DIZ)", "setting": "[19]", "result": "10 - 18 mm"}, {"measurement": "diameter of the inhibition zone (DIZ)", "setting": "[3]", "result": "10 - 18 mm"}, {"measurement": "diameter of the inhibition zone (DIZ)", "setting": "[4]", "result": "15 - 18 mm"}]}
{"smiles": "C=CCCCCCCCCC1=NNC2SCC(c3ccccc3)=NN12", "note": "(configuration not stated)", "values": [{"measurement": "IC50", "setting": "[15]", "result": 7.4, "unit": "µM"}, {"measurement": "IC50", "setting": "[16]", "result": 10.3, "unit": "µM"}, {"measurement": "IC50", "setting": "[17]", "result": 8.01, "unit": "µM"}]}
{"smiles": "CCCCC/C=C\\CCC(O)CCCCCCCc1nc2ccccc2c(=O)o1", "note": "(configuration not stated)", "values": [{"measurement": "diameter of the inhibition zone (DIZ)", "setting": "[1]", "result": "15 - 19 mm"}, {"measurement": "diameter of the inhibition zone (DIZ)", "setting": "[2]", "result": "15 - 19 mm"}, {"measurement": "diameter of the inhibition zone (DIZ)", "setting": "[3]", "result": "15 - 19 mm"}, {"measurement": "diameter of the inhibition zone (DIZ)", "setting": "[4]", "result": "15 - 19 mm"}, {"measurement": "diameter of the inhibition zone (DIZ)", "setting": "[5]", "result": "17 - 20 mm"}]}
